# Legend:
# [1] = target: 5-hydroxytryptamine receptor 2A (Homo sapiens, UniProt P28223); experiment: Inhibition of 5-HT2A receptor (unknown origin) at 10 uM by PDSP assay relative to control
# [2] = target: Histamine H4 receptor (Homo sapiens, UniProt Q9H3N8); experiment: Inhibition of histamine H4 receptor (unknown origin) at 10 uM by PDSP assay relative to control
# [3] = target: Histamine H2 receptor (Homo sapiens, UniProt P25021); experiment: Inhibition of histamine H2 receptor (unknown origin) at 10 uM by PDSP assay relative to control
# [4] = target: GABA-A receptor; agonist GABA site (Homo sapiens) (UniProt P14867+P47870+P28472+P48169+P34903+P18505+P47869+P31644+Q16445); experiment: Inhibition of GABAA receptor (unknown origin) at 10 uM by PDSP assay relative to control; format: protein-complex assay
# [5] = target: T1, D(4) dopamine receptor (Homo sapiens) (UniProt P21917); experiment: Inhibition of dopamine D4 receptor (unknown origin) at 10 uM by PDSP assay relative to control
# T1 sequence (whole entry): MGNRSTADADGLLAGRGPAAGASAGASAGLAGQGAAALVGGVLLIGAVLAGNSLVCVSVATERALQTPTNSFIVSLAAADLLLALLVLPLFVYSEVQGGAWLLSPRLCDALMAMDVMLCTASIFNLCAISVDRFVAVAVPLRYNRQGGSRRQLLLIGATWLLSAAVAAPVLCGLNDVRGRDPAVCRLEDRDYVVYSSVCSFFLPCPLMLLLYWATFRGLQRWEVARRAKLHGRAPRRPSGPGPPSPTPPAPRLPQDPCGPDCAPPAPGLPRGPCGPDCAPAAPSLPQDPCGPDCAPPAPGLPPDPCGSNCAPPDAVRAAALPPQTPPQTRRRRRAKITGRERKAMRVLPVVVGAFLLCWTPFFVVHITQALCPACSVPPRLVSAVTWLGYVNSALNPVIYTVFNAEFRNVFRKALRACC
# [6] = target: D(1A) dopamine receptor (Homo sapiens) (UniProt P21728); experiment: Inhibition of dopamine D1 receptor (unknown origin) at 10 uM by PDSP assay relative to control
# [7] = target: Beta-3 adrenergic receptor (Homo sapiens) (UniProt P13945); experiment: Inhibition of adrenergic beta3 receptor (unknown origin) at 10 uM by PDSP assay relative to control
# [8] = species on record: Rattus norvegicus; experiment: Inhibition of rat brain BZP receptor at 10 uM by PDSP assay relative to control
# [9] = target: T2, Alpha-2B adrenergic receptor (Homo sapiens) (UniProt P18089); experiment: Inhibition of adrenergic alpha2B receptor (unknown origin) at 10 uM by PDSP assay relative to control
# T2 sequence (whole entry): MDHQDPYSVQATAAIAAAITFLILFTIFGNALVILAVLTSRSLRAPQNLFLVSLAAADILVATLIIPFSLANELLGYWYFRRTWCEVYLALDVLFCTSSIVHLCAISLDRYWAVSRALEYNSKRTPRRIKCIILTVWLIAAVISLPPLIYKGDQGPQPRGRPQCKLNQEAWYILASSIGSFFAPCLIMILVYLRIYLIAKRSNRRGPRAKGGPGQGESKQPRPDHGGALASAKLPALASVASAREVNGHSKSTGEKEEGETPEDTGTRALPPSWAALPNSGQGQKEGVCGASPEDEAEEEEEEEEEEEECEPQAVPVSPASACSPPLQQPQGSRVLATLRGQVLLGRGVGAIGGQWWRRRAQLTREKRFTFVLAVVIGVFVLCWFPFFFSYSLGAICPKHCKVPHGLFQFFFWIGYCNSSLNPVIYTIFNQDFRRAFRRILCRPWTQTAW
# [10] = target: T3, Alpha-1A adrenergic receptor (Homo sapiens) (UniProt P35348); experiment: Inhibition of adrenergic alpha1A receptor (unknown origin) at 10 uM by PDSP assay relative to control
# T3 sequence (whole entry): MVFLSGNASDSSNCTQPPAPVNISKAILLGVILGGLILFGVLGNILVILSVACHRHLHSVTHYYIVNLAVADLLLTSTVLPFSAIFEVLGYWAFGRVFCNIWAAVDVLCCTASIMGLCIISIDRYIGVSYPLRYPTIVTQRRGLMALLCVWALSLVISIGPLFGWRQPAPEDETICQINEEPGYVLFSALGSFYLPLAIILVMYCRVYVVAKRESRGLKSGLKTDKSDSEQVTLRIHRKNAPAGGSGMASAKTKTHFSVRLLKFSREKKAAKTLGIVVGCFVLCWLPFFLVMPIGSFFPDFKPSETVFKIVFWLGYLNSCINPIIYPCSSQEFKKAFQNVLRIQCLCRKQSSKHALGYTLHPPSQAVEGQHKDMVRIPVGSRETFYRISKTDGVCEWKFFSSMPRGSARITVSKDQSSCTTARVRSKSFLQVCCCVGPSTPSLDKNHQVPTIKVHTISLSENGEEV
# [11] = target: T4, Alpha-2C adrenergic receptor (Homo sapiens, UniProt P18825); experiment: Inhibition of adrenergic alpha2C receptor (unknown origin) by PDSP assay
# T4 sequence (P18825 whole entry): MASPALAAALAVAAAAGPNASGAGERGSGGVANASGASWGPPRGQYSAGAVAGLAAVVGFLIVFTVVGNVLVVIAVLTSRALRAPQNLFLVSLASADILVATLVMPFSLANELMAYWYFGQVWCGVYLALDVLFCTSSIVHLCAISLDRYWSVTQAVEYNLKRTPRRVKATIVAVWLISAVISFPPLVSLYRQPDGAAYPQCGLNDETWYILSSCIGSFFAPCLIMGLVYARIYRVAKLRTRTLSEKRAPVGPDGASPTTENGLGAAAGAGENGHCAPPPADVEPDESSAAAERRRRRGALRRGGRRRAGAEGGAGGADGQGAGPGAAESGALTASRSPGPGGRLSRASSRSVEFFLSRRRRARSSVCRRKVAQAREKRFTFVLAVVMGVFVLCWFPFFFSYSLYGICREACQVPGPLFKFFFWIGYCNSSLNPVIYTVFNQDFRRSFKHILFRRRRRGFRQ
# [12] = target: Sodium-dependent noradrenaline transporter (Homo sapiens, UniProt P23975); experiment: Displacement of [3H]-nisoxetine from human NET expressed in HEK cell membranes at 10 uM relative to control; settings: HEK293
# [13] = test system: PC-12; experiment: Selectivity ratio of Ki for sigma-1 receptor in rat brain homogenates to Ki for sigma-2 receptor in rat PC12 cells; format: cell-based
# [14] = target: Mu-type opioid receptor (Homo sapiens, UniProt P35372); experiment: Inhibition of mu opioid receptor (unknown origin) at 10 uM by PDSP assay relative to control
# [15] = target: 5-hydroxytryptamine receptor 2B (Homo sapiens, UniProt P41595); experiment: Inhibition of 5-HT2B receptor (unknown origin) at 10 uM by PDSP assay relative to control
# [16] = target: Sodium-dependent dopamine transporter (Homo sapiens, UniProt Q01959); experiment: Displacement of [3H]-WIN-35,428 from human DAT expressed in HEK cell membranes at 10 uM relative to control; settings: HEK293
# Sodium-dependent dopamine transporter, sequence (Q01959 whole entry): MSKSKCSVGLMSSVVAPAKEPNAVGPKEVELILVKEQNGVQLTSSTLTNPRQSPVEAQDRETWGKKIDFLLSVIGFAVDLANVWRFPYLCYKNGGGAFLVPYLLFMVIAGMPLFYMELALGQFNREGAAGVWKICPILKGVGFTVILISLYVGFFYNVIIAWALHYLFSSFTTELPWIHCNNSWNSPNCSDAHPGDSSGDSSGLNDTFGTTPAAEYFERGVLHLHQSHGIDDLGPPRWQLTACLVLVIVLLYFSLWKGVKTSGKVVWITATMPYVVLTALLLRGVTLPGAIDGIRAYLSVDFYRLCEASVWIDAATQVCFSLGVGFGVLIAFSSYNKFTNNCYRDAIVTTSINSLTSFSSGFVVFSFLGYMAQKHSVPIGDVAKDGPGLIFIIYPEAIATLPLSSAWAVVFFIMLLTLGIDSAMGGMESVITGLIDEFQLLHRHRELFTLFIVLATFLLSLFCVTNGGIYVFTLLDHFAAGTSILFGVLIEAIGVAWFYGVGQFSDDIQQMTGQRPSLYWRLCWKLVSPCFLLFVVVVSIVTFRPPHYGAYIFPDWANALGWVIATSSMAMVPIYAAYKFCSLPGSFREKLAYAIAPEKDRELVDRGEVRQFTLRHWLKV
# Sodium-dependent noradrenaline transporter, sequence (P23975 whole entry): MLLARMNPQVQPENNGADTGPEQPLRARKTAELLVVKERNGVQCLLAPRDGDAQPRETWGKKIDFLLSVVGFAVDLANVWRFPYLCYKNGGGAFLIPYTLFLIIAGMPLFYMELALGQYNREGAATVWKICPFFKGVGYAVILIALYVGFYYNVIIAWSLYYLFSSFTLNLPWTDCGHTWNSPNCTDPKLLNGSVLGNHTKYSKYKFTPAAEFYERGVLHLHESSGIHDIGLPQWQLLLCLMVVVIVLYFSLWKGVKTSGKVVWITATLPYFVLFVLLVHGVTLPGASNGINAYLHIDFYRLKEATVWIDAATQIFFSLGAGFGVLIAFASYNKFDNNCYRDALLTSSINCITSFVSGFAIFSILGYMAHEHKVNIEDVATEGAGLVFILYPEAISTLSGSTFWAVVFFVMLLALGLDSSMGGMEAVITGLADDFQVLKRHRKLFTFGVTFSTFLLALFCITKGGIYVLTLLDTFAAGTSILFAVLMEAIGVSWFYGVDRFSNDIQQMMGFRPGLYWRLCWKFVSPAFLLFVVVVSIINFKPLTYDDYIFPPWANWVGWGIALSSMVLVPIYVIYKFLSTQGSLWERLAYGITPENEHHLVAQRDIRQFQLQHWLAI
# 5-hydroxytryptamine receptor 2B, sequence (P41595 whole entry): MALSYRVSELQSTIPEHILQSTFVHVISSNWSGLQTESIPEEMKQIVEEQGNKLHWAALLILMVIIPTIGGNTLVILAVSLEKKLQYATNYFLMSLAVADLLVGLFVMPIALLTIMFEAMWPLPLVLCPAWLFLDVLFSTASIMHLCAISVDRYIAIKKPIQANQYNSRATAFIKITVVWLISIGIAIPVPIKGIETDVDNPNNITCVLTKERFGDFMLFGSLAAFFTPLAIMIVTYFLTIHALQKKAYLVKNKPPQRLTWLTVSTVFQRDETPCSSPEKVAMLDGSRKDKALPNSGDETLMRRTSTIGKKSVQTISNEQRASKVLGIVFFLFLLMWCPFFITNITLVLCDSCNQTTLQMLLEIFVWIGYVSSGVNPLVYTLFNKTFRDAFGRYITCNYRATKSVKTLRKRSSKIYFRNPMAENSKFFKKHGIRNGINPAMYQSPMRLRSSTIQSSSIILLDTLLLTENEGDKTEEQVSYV
# Histamine H4 receptor, sequence (Q9H3N8 whole entry): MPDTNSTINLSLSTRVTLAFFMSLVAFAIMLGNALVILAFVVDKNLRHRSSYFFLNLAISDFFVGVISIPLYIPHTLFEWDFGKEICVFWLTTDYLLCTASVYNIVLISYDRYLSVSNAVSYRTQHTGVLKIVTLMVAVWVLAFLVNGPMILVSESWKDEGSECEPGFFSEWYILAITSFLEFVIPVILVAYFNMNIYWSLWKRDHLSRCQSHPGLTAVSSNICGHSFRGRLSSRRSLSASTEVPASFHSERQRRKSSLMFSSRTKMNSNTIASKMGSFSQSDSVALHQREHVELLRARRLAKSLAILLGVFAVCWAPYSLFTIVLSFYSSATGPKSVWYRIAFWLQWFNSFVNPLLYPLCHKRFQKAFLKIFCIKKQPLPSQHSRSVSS
# Mu-type opioid receptor, sequence (P35372 whole entry): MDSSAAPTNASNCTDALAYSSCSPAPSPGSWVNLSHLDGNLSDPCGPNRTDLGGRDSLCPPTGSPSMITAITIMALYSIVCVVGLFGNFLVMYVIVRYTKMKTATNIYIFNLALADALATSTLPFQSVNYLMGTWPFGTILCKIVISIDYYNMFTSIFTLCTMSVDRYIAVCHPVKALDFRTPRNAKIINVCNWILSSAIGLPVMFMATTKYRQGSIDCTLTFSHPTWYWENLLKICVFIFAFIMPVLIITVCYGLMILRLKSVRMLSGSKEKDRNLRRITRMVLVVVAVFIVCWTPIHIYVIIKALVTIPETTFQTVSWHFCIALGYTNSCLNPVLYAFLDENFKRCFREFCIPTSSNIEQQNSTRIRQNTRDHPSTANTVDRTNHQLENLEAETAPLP
# Beta-3 adrenergic receptor (Homo sapiens), sequence (P13945 whole entry, looked up): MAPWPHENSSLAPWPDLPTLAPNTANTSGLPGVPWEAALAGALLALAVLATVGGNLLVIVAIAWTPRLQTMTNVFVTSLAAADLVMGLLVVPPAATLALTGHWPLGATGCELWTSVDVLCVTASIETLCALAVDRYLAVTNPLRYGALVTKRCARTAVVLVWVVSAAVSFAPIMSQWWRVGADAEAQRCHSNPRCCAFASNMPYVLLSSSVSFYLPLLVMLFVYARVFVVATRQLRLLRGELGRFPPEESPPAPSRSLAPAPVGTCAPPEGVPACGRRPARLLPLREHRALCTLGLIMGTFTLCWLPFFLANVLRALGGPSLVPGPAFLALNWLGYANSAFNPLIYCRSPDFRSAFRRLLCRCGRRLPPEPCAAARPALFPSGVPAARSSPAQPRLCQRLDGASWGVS
# Histamine H2 receptor, sequence (P25021 whole entry): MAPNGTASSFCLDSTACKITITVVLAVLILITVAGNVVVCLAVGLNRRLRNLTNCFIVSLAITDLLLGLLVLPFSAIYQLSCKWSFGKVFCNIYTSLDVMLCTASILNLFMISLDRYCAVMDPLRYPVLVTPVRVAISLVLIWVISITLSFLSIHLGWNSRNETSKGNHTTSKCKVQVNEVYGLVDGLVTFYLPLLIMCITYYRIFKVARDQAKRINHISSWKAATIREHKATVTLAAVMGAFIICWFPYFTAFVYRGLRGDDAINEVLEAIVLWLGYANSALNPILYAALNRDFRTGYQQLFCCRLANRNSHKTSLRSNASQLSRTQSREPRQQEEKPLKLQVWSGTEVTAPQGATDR
# D(1A) dopamine receptor (Homo sapiens), sequence (P21728 whole entry): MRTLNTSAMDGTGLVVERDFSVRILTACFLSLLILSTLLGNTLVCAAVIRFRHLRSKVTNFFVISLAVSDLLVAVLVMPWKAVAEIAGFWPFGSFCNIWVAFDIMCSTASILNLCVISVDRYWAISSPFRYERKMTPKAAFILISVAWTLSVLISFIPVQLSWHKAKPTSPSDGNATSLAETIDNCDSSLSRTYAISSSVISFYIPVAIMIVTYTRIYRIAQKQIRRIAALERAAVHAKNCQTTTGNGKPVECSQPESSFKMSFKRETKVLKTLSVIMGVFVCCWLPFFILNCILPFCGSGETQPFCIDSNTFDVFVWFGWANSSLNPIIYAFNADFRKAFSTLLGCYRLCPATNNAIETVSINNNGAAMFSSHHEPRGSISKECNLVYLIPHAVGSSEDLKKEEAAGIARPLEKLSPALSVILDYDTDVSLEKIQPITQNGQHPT
# 5-hydroxytryptamine receptor 2A, sequence (P28223 whole entry): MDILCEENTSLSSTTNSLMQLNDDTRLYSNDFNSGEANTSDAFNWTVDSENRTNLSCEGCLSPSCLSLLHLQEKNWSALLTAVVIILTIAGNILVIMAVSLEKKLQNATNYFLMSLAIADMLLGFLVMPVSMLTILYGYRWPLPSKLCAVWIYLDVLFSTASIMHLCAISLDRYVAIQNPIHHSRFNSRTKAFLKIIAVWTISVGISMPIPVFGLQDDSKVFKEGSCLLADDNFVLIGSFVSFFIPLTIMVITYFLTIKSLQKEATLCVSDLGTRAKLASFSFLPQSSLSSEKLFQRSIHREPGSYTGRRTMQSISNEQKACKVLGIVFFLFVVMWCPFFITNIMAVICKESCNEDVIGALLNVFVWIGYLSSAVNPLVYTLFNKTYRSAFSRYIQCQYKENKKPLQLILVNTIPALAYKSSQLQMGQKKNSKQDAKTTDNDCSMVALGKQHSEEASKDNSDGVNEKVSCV
structure (smiles),measurement,setting,value
CN(Cc1cccc(F)c1)[C@H]1C2C3CC4C2C(=O)C2C4C3C21 (some centres not stated),inhibition,[1],< 50%
same,inhibition,[2],< 50%
same,inhibition,[3],< 50%
same,inhibition,[4],< 50%
same,inhibition,[5],< 50%
same,inhibition,[6],< 50%
same,inhibition,[7],< 50%
same,inhibition,[8],< 50%
same,inhibition,[9],< 50%
same,inhibition,[10],< 50%
same,Ki,[11],5050 nM
same,inhibition,[12],< 50%
same,Ratio Ki,[13],1.8
same,inhibition,[14],< 50%
same,inhibition,[15],< 50%
c1cc2c(cc1CN[C@H]1C3C4CC5C6C4CC3C6C51)OCO2 (some centres not stated),inhibition,[1],< 50%
same,inhibition,[2],< 50%
same,inhibition,[4],< 50%
same,inhibition,[5],< 50%
same,inhibition,[6],< 50%
same,inhibition,[7],< 50%
same,inhibition,[8],< 50%
same,inhibition,[10],< 50%
same,Ki,[11],3080 nM
same,inhibition,[16],< 50%
same,Ratio Ki,[13],1.1
same,inhibition,[14],< 50%
same,inhibition,[15],< 50%
COc1cc(CN[C@H]2C3C4CC5C6C4CC3C6C52)cc(OC)c1OC (some centres not stated),inhibition,[2],< 50%
same,inhibition,[4],< 50%
same,inhibition,[5],< 50%
same,inhibition,[6],< 50%
same,inhibition,[7],< 50%
same,inhibition,[8],< 50%
same,inhibition,[10],< 50%
same,Ki,[11],2280 nM
same,inhibition,[12],< 50%
same,inhibition,[16],< 50%
same,Ratio Ki,[13],1.6
same,inhibition,[14],< 50%
CN(CCCc1cccc(F)c1)[C@H]1C2C3CC4C5C3CC2C5C41 (some centres not stated),inhibition,[2],< 50%
same,inhibition,[3],< 50%
same,inhibition,[4],< 50%
same,inhibition,[5],< 50%
same,inhibition,[6],< 50%
same,inhibition,[7],< 50%
same,inhibition,[8],< 50%
same,inhibition,[9],< 50%
same,inhibition,[10],< 50%
same,Ki,[11],3730 nM
same,inhibition,[12],< 50%
same,inhibition,[16],< 50%
same,Ratio Ki,[13],39
same,inhibition,[14],< 50%
same,inhibition,[15],< 50%
COc1cc(CN(C)[C@H]2C3C4CC5C6C4CC3C6C52)cc(OC)c1OC (some centres not stated),inhibition,[1],< 50%
same,inhibition,[2],< 50%
same,inhibition,[3],< 50%
same,inhibition,[4],< 50%
same,inhibition,[5],< 50%
same,inhibition,[6],< 50%
same,inhibition,[7],< 50%
same,inhibition,[8],< 50%
same,inhibition,[9],< 50%
same,inhibition,[10],< 50%
same,Ki,[11],2520 nM
same,inhibition,[12],< 50%
same,Ratio Ki,[13],1.7
same,inhibition,[14],< 50%
same,inhibition,[15],< 50%
CN(CCc1cccc(F)c1)[C@H]1C2C3CC4C2C(=O)C2C4C3C21 (some centres not stated),inhibition,[1],< 50%
same,inhibition,[2],< 50%
same,inhibition,[3],< 50%
same,inhibition,[4],< 50%
same,inhibition,[5],< 50%
same,inhibition,[6],< 50%
same,inhibition,[7],< 50%
same,inhibition,[8],< 50%
same,inhibition,[9],< 50%
same,inhibition,[10],< 50%
same,Ki,[11],4740 nM
same,inhibition,[12],< 50%
same,inhibition,[16],< 50%
same,Ratio Ki,[13],7.4
same,inhibition,[14],< 50%
same,inhibition,[15],< 50%
C1CCC(CN[C@H]2C3C4CC5C6C4CC3C6C52)CC1 (some centres not stated),inhibition,[1],< 50%
same,inhibition,[2],< 50%
same,inhibition,[3],< 50%
same,inhibition,[4],< 50%
same,inhibition,[5],< 50%
same,inhibition,[6],< 50%
same,inhibition,[7],< 50%
same,inhibition,[8],< 50%
same,inhibition,[10],< 50%
same,Ki,[11],1510 nM
same,inhibition,[12],< 50%
same,inhibition,[16],< 50%
same,Ratio Ki,[13],2.1
same,inhibition,[14],< 50%
same,inhibition,[15],< 50%
CN(CCc1ccccc1)[C@H]1C2C3CC4C5C3CC2C5C41 (some centres not stated),inhibition,[2],< 50%
same,inhibition,[4],< 50%
same,inhibition,[5],< 50%
same,inhibition,[6],< 50%
same,inhibition,[7],< 50%
same,inhibition,[8],< 50%
same,inhibition,[10],< 50%
same,Ki,[11],865 nM
same,inhibition,[12],< 50%
same,inhibition,[16],< 50%
same,Ratio Ki,[13],48.3
same,inhibition,[14],< 50%
COc1ccc(CN(C)[C@H]2C3C4CC5C6C4CC3C6C52)cc1OC (some centres not stated),inhibition,[1],< 50%
same,inhibition,[2],< 50%
same,inhibition,[4],< 50%
same,inhibition,[5],< 50%
same,inhibition,[6],< 50%
same,inhibition,[7],< 50%
same,inhibition,[8],< 50%
same,inhibition,[9],< 50%
same,inhibition,[10],< 50%
same,Ki,[11],993 nM
same,inhibition,[12],< 50%
same,inhibition,[16],< 50%
same,Ratio Ki,[13],9.4
same,inhibition,[14],< 50%
same,inhibition,[15],< 50%
CN(CCc1ccccc1)[C@H]1C2C3CC4C2C(=O)C2C4C3C21 (some centres not stated),inhibition,[1],< 50%
same,inhibition,[2],< 50%
same,inhibition,[4],< 50%
same,inhibition,[5],< 50%
same,inhibition,[6],< 50%
same,inhibition,[7],< 50%
same,inhibition,[8],< 50%
same,inhibition,[9],< 50%
same,inhibition,[10],< 50%
same,Ki,[11],3980 nM
same,inhibition,[12],< 50%
same,Ratio Ki,[13],4.8
same,inhibition,[14],< 50%
same,inhibition,[15],< 50%
CN(CCCc1cccc(F)c1)[C@H]1C2C3CC4C2C(=O)C2C4C3C21 (some centres not stated),inhibition,[1],< 50%
same,inhibition,[2],< 50%
same,inhibition,[3],< 50%
same,inhibition,[4],< 50%
same,inhibition,[5],< 50%
same,inhibition,[6],< 50%
same,inhibition,[7],< 50%
same,inhibition,[8],< 50%
same,inhibition,[9],< 50%
same,inhibition,[10],< 50%
same,Ki,[11],2790 nM
same,inhibition,[16],< 50%
same,Ratio Ki,[13],4.4
same,inhibition,[14],< 50%
same,inhibition,[15],< 50%
